Results from patent publication US11951087B2, “Eye wash compositions and methods” (priority 2021, dated 2024).
Where “and” joins values, the source holds several entries; their conditions need not be identical. Equal entries are not always repeated. Entries after “also recorded” stand apart in the source; their conditions may differ. Where two headings read alike, the source gives them in different places.

Assays:
[1] = system: skin stripped wounds infected with Pseudomonas aeruginosa (ATCC 27853); assay: Histological assessment of tape-stripped, infected mouse skin wound (Example 6); conditions: for tissue repair as evidenced by histology: two different doses
[2] = system: P. aeruginosa (ACTA 9027); type: in vivo; conditions: day five; for bacterial burden: topical 50, 100, 200 mM in water, none statistically significant; for most effective dose: topical, aqueous
[3] = system: IGF-1; assay: Local growth hormone levels in normal mouse skin (Example 4); type: in vivo, mice; conditions: 100 μM topical, normal rodent skin
Experimental: (§1) Mice were shaved but unstrapped and uninfected (normal rodent skin). The test reagents were applied topically in an aqueous solution on the unstripped site at two hours and daily on day 1, 2 and 3. Testing reagents consisted of […] and PCA formulated at one dose, 100 μM in an aqueous solution.

[4] = system: EGF; assay: as above; type: in vivo, mice; conditions: 100 μM topical, normal rodent skin
Experimental: as §1

[5] = system: TGF-β; assay: as above; type: in vivo, mice; conditions: 100 μM topical, normal rodent skin
Experimental: as §1

[6] = system: P. acnes; type: cell-based; conditions: disc diffusion
[7] = system: P. aeruginosa (ACTA 27853); type: in vivo; conditions: for kill of Pseudomonas aeruginosa: both reagents and dose; for dose with most significant decrease of bacteria: day two and four; for bactericidal on stripped skin wound: 48 to 96 hours
[8] = system: Pseudomonas aeruginosa; type: cell-based; conditions: disc diffusion
[9] = Solubility and hydrophilic-lipophile balance; type: physicochemical
[10] = system: Candida albicans; type: cell-based; conditions: disc diffusion
Description: This example describes the method for testing the antimicrobial susceptibility of anthocyanins, anthocyanidins, or metabolites and compounds thereof. The Kirby-Bauer method of disc diffusion was used for testing, following a standard set of procedures recommended by the NCCLS. In this methodology, a set of discs saturated with either testing compounds or a control was placed on inoculated agar plates. The plates were inoculated with organisms including C. difficile, P. acnes, C. prefringens, L. casei, C. albicans, E. coli, ATTC 8739 and ATCC 43895, S. aureus, S. mutans, S. pyogenes, P. aeruginosa and K. pneumonia. The control sample was amoxicillin, an antimicrobial with very effective broad-spectrum antibiotic properties. Samples included delphinidin, pelargonidin, cyanidin CI, 28% cyanindin-3-glucoside (C3G), protocatechuic acid (PCA) and 2,4,6 Trihydroxybenzaldehyde (2,4,6 THBA).
After 18, 24, or 48 hours of incubation, depending upon the microorganism, each plate was examined. The diameters of the zones of complete inhibition were measured, including the diameter of the disc. Zones were measured to the nearest millimeter, using sliding calipers. The size of the zones of inhibition was interpreted by referring to NCCLS standard. […]

[11] = system: EGF; assay: Growth hormone levels in stripped mouse skin by ELISA (Example 5); type: in vivo, mice; conditions: 25 mM, infected and treated wound, 48 hours
Experimental: (§2) Four different conditions were used: mice had back skin tape stripped and the stripped site (wound) was infected with P. aeruginosa; mice had back skin stripped and were not infected, mice had taped stripped, infected and treated with PCA, mice were tape stripped, uninfected, and treated with PCA. When used, the PCA test reagent was applied topically in an aqueous solution on the stripped site at two hours and 24 hours.
(§3) The testing reagents consisted of and PCA formulated at one dose, 25 mM, in an aqueous solution. Levels of IGF-1, TGF-β, and EGF levels in the skin tissue at 48 hours were measured by ELISA. There were two control groups: the stripped skin and the stripped skin and infected.

[12] = system: IGF-1; assay: as above; type: in vivo; conditions: 25 mM; stripped and infected mice skin; 48 hours
Experimental: as §2, §3

[13] = system: eye tissues; assay: Irritation of eye tissues
[14] = upon ingestion; cited from earlier work
[15] = 48 and 96 hours, topical, aqueous

For OC[C@H]1O[C@@H](Oc2cc3c(O)cc(O)cc3[o+]c2-c2ccc(O)c(O)c2)[C@H](O)[C@@H](O)[C@@H]1O [C3G, Cyanidin 3-glucoside], the dermal layer thickness ([1]; 100 mM, 48 hours) was “thicker”, the hair follicles ([1]; 100 mM, 48 hours) was “single and double cellular lining” and the inflammation ([1]; 100 mM, 48 hours) was “inflammation in the dermis and muscular layer and below”. For the same compound, the surface cellularity ([1]; 100 mM, 48 hours) was “multiple cellular covering”, the vascularity ([1]; 100 mM, 48 hours) was “prominent” and the dermal layer thickness ([1]; 200 mM, 48 hours) was “thickened”. The hair follicles ([1]; 200 mM, 48 hours) was “single and double cellular lining”, the inflammation ([1]; 200 mM, 48 hours) was “inflammation in the dermis and muscular layer” and the surface cellularity ([1]; 200 mM, 48 hours) was “multiple cells thick”. The vascularity ([1]; 200 mM, 48 hours) was “increased”, the “tissue repair as evidenced by histology” value [1] was “stimulated tissue repair” and the bacterial burden [2] was “decreased the bacterial burden”. The most effective dose [2] was 100 mM, the “local level of IGF-1” value [3] was “decrease” and the “local level of EGF” value [4] was “decrease”. For the same compound, the “local level of TGF-β” value [5] was “decrease”, the “bactericidal against P. acnes” value [6] was “bactericidal” and the “susceptibility of P. acnes” value [6] was “susceptible”. For the same compound, the bacterial burden ([7]; 100 mM, 48 and 96 hours) was “significantly reduced”, the bacterial burden ([7]; 200 mM, 48 and 96 hours) was “significantly reduced” and the bacterial burden [7, 15] was “decreased the bacterial burden”. The “kill of Pseudomonas aeruginosa” value ([7]; 48 hours) was 10,000 fold, the “dose with most significant decrease of bacteria” value [7] was 100 mM and 200 mM and the “bactericidal on stripped skin wound” value ([7]; topical) was “bactericidal”.
For CC1(C)S[C@@H]2[C@H](NC(=O)[C@H](N)c3ccc(O)cc3)C(=O)N2[C@H]1C(=O)O [Amoxicillin, amoxicillin, reference compound], the “effect on Pseudomonas aeruginosa” value [8] was “no effect”.
With O=C(O)c1ccc(O)c(O)c1 [PCA, protocatechuic acid] the “solubility in a lens care solution” value [9] was “soluble”, the “collagen between epidermis and dermis” value ([1]; 25 mM, 48 hours) was “collagen proliferation; also recorded: collagen layer formation” and the dermal layer thickness ([1]; 25 mM, 48 hours) was “thickened”. The hair follicles ([1]; 25 mM, 48 hours) was “prominent with multiple cellular lining”, the inflammation ([1]; 25 mM, 48 hours) was “abundant inflammation” and the surface cellularity ([1]; 25 mM, 48 hours) was “abundant and multiple cell layers”. The vascularity ([1]; 25 mM, 48 hours) was “moderate vascularity”, the dermal layer thickness ([1]; 50 mM, 48 hours) was “thicker” and the hair follicles ([1]; 50 mM, 48 hours) was “double layer of cells”. For the same compound, the inflammation ([1]; 50 mM, 48 hours) was “increased in the dermis and below the muscle layer”, the surface cellularity ([1]; 50 mM, 48 hours) was “covered with multiple layers of cells” and the vascularity ([1]; 50 mM, 48 hours) was “increased vascularity”. For the same compound, the “tissue repair as evidenced by histology” value [1] was “stimulated tissue repair”, the “susceptibility of Candida albicans” value [10] was “susceptible” and the “effect on Pseudomonas aeruginosa” value [8] was “some effectiveness”. For the same compound, the EGF response level [11] was “lowest”, the IGF-1 production [12] was “optimizes the IGF-1 production” and the bacterial burden [2] was “decreased the bacterial burden”. For the same compound, the most effective dose [2] was 50 mM, the “bactericidal against P. acnes” value [6] was “bactericidal” and the “susceptibility of P. acnes” value [6] was “susceptible”. The “irritation of eye tissues” value [13] was “non-irritating”, the “duration in the body” value [14] was 8 h and the route of elimination [14] was “via the urine and feces”. For the same compound, the “time of peak amount” value [14] was 2 h, the “statistical significance of bacterial burden reduction” value ([7]; 25 mM, 48 hours) was “statistically significant” and the bacterial burden ([7]; 25 mM, both time periods (48 and 96 hours)) was “reduced the bacterial burden”. The bacterial burden [7, 15] was “decreased the bacterial burden”, the “kill of Pseudomonas aeruginosa” value ([7]; 48 hours) was 10,000 fold and the “dose with most significant decrease of bacteria” value [7] was 25 mM. For the same compound, the “bactericidal on stripped skin wound” value ([7]; topical) was “bactericidal”.
